From patent publication US20230330251A1, “METHODS FOR TREATING CANCERS WITH ANTIBODY DRUG CONJUGATES (ADC) THAT BIND TO 191P4D12 PROTEINS” (AGENSYS, INC., priority 2020, published 2023)
Non-standard residues stand in square brackets, D forms with d. Residues, ends and D or L forms follow the SMILES beside them. *: point of attachment. Dolaproine = CO[C@@H]([C@@H]1CCCN1)[C@@H](C)C(=O)O; Dil = CC[C@H](C)[C@H](NC)[C@@H](CC(=O)O)OC; X1 = C[C@@H](N*)[C@@H](O)c1ccccc1; NMeV = CN[C@H](C(=O)O)C(C)C

How the values were obtained:
[1] = test system: subjects; conditions: cited from earlier work
[2] = test system: locally advanced or metastatic urothelial cancer; conditions: second line, KEYNOTE-045; cited from earlier work
[3] = molecular target: PD-1 (Homo sapiens, UniProt Q15116); conditions: cited from earlier work
Sequence of PD-1 (Q15116 25-288): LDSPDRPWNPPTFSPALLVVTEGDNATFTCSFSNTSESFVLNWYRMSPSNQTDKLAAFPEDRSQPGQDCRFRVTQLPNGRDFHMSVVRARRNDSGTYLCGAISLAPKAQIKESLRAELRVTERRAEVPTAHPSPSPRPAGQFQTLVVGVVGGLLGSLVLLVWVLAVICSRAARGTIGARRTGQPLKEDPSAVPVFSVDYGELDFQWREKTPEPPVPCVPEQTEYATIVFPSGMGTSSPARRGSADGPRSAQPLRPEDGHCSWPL

[4] = Phase 1 study of EV: pharmacokinetics; format: in vivo, human; conditions: EV dosing on Days 1, 8 and 15 of every 28-day cycle
Source text: Based on pharmacokinetic data from the phase 1 study, the half-life of EV is ˜1-2 days. […] Minimal (<50%) intra-cycle accumulation of MMAE was observed. It is anticipated that the dosing schedule in the study will maintain ADC exposures over each 28-day cycle, contributing to a favorable balance of activity and safety, as observed in the phase 1 trial.

[5] = test system: acute myeloid leukemia (AML) at relapse; conditions: administered alone; cited from earlier work
[6] = test system: urothelial cancer; conditions: second line treatment; best supportive care 4.6 months; cited from earlier work

CC(=O)O[C@@]12CO[C@@H]1C[C@H](O)[C@@]1(C)C(=O)[C@H](O)C3=C(C)[C@@H](OC(=O)[C@H](O)[C@@H](NC(=O)OC(C)(C)C)c4ccccc4)C[C@@](O)([C@@H](OC(=O)c4ccccc4)[C@H]21)C3(C)C [Docetaxel, docetaxel]
fluid retention following docetaxel therapy ([1]; in vivo): Severe fluid retention has been reported

pembrolizumab: humanized monoclonal IgG4 anti-PD-1 antibody
Median OS [2]: 10.3 months

BGB-A317: anti-PD-1 monoclonal antibody in which the ability to bind Fc gamma receptor I is engineered out
binding to PD-1 [3]: high affinity

CC[C@H](C)[C@@H]([C@@H](CC(=O)N1CCC[C@H]1[C@H](OC)[C@@H](C)C(=O)N[C@H](C)[C@@H](O)c1ccccc1)OC)N(C)C(=O)[C@@H](NC(=O)[C@@H](NC)C(C)C)C(C)C [MMAE, monomethyl auristatin E, reference compound] (H-[NMeV]V[Dil][Dolaproine]-X1)
intra-cycle accumulation of MMAE [4]: < 50%

CT-011: anti-PD-1 antibody, a humanized antibody
response in acute myeloid leukemia (AML) at relapse [5]: failed to show response

CC[C@]12C=CCN3CC[C@@]4(c5cc([C@@]6(C(=O)OC)C[C@@H]7C[C@@H](C(C)(F)F)CN(Cc8c6[nH]c6ccccc86)C7)c(OC)cc5N(C)[C@H]4[C@@](O)(C(=O)OC)[C@@H]1OC(C)=O)[C@@H]32 [Vinflunine, vinflunine]
Median OS [6]: 6.9 months | Cases of Posterior Reversible Encephalopathy Syndrome (PRES) ([1]; after administration of vinflunine): have been observed
